Non-standard residues stand in square brackets, D forms with d. Residues, ends and D or L forms follow the SMILES beside them. No end group written: not given here. *: point of attachment. X1 = NCCCCCCCCCCCCCCCCCC(=O)*; 12Ado = NCCCCCCCCCCCC(=O)O
Biological target: T1, IL-6 (Homo sapiens, UniProt P05231)
T1 construct: purchased Genzyme Corp
Assay: Activity for inhibition of binding of IL-6 to receptor by peptide (IL-6 receptor expression cells, FITC labeled anti-IL-6 antibody)
Details: 5 μg of the peptide, 50 ng of IL-6, 10^5 IL-6 receptor expression cells, 4° C for one hour
Method: A human lymphocyte fraction was obtained from human peripheral blood with Ficoll-Paque (manufactured by Pharmacia-LKB). The fraction was reacted with a cultured supernatant of Epstein-Barr Virus producing cell strain B958 to transform the human lymphocytes to obtain IL-6 receptor expression cells.
1 mg of anti-human IL-6 antibody [Rabbit Anti-human Interleukin-6, manufactured by Genzyme Corp.] was dissolved in a 0.05M carbonate buffer solution (pH: 9.5) and to the resulting solution was added 10 μg of FITC [Fluorescein isothiocyanate, manufactured by Sigma Corp.]. The mixture was stirred at 4° C. overnight. The resulting solution was passed through PD-10 column (manufactured by Pharmacia-LKB) to obtain FITC labeled anti-IL-6 antibody as a firstly eluted fraction.
10^5 IL-6 receptor expression cells were suspended in 0.5 % BSA (bovine serum albumin, manufactured by Sigma Corp.)-PBS (a phosphate buffer solution containing 0.15 M sodium chloride, pH 7.4) and to the resulting suspension were added 50 ng of IL-6 (Human recombinant interleukin-6, manufactured by Genzyme Corp.) and 5 μg of the peptide obtained in any one of Examples 1 to 96. The suspension was allowed to stand at 4° C for one hour. Then, after washing the cells centrifugally with 0.5% BSA-PBS three times (1200 rpm, 5 min.), 1 μg of FITC labeled anti-IL-6 antibody was added and the mixture was allowed to stand at 4° C. for 30 minutes. After washing with 0.5% BSA-PBS three times, the intensity of fluorescence of the cells was determined. The binding inhibition activity of the peptide of each Example was evaluated, by taking the value obtained without addition of the peptide as a control and taking the value- obtained without addition of IL-6 as a blank, according to the following formula: [formula]

T1 sequence (P05231 30-212): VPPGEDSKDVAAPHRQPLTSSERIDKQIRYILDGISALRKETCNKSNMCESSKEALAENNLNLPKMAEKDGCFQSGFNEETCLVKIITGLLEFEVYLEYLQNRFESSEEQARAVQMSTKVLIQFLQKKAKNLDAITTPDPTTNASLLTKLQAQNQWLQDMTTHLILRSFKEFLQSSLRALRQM

Compound | Binding inhibition activity (%)
C[C@H](NC(=O)[C@@H]1CCCN1C(=O)[C@H](CO)NC(=O)[C@H](CC(N)=O)NC(=O)[C@H](CCC(N)=O)NC(=O)[C@H](Cc1ccccc1)NC(=O)[C@H](CCCCN)NC(=O)[C@H](CCCNC(=N)N)NC(=O)CCCCCCCCCCCCCCCCCN)C(=O)N[C@@H](CCC(=O)O)C(=O)N[C@@H](CC(=O)O)C(=O)N[C@@H](Cc1ccccc1)C(=O)N[C@@H](CCC(N)=O)C(=O)N[C@@H](CCC(=O)O)C(=O)N1CCC[C@H]1C(=O)N[C@@H](CS)C(=O)N[C@@H](CCC(N)=O)C(=O)N[C@@H](Cc1ccc(O)cc1)C(=O)N[C@@H](CO)C(=O)N[C@@H](CCC(N)=O)C(=O)N[C@@H](CCC(=O)O)C(=O)N[C@@H](CO)C(=O)NCC(=O)O [Example 20] (X1-RKFQNSPAEDFQEPCQYSQESG-OH) | 65
DDDDDGTVHLLVDVPPEEPQLSCFRKAAG-NH2 [Example 16] | 31
DDDDDRKFQNSPAEDFQEPCQYSQESAAG-NH2 [Example 24] | 55
CC(C)C[C@H](NC(=O)[C@H](CCC(=O)O)NC(=O)[C@H](Cc1ccccc1)NC(=O)[C@H](CCCNC(=N)N)NC(=O)[C@H](CC(C)C)NC(=O)[C@H](CCCNC(=N)N)NC(=O)[C@H](Cc1ccc(O)cc1)NC(=O)[C@H](Cc1ccccc1)NC(=O)[C@H](CO)NC(=O)[C@H](CO)NC(=O)[C@H](CC(N)=O)NC(=O)[C@H](Cc1c[nH]c2ccccc12)NC(=O)[C@H](CO)NC(=O)[C@H](Cc1c[nH]cn1)NC(=O)[C@@H]1CCCN1C(=O)[C@H](CC(=O)O)NC(=O)[C@H](CCC(N)=O)NC(=O)[C@H](Cc1c[nH]c2ccccc12)NC(=O)CCCCCCCCCCCCCCCCCN)C(=O)N[C@@H](CCCNC(=N)N)C(=O)N[C@@H](Cc1ccc(O)cc1)C(=O)N[C@@H](CCCNC(=N)N)C(=O)N[C@@H](C)C(=O)N[C@@H](CCC(=O)O)C(=O)N[C@@H](CCCNC(=N)N)C(=O)N[C@@H](CO)C(=O)N[C@@H](CCCCN)C(=O)NCC(=O)O [Example 92] (X1-WQDPHSWNSSFYRLRFELRYRAERSKG-OH) | 62
CC(C)C[C@H](NC(=O)[C@H](CCC(=O)O)NC(=O)[C@H](Cc1ccccc1)NC(=O)[C@H](CCCNC(=N)N)NC(=O)[C@H](CC(C)C)NC(=O)[C@H](CCCNC(=N)N)NC(=O)[C@H](Cc1ccc(O)cc1)NC(=O)[C@H](Cc1ccccc1)NC(=O)[C@H](CO)NC(=O)[C@H](CO)NC(=O)[C@H](CC(N)=O)NC(=O)[C@H](Cc1c[nH]c2ccccc12)NC(=O)[C@H](CO)NC(=O)[C@H](Cc1c[nH]cn1)NC(=O)[C@@H]1CCCN1C(=O)[C@H](CC(=O)O)NC(=O)[C@H](CCC(N)=O)NC(=O)[C@H](Cc1c[nH]c2ccccc12)NC(=O)CCCCCCCCCCCN)C(=O)N[C@@H](CCCNC(=N)N)C(=O)N[C@@H](Cc1ccc(O)cc1)C(=O)N[C@@H](CCCNC(=N)N)C(=O)N[C@@H](C)C(=O)N[C@@H](CCC(=O)O)C(=O)N[C@@H](CCCNC(=N)N)C(=O)N[C@@H](CO)C(=O)N[C@@H](CCCCN)C(=O)N[C@@H](CCC(=O)O)C(=O)N[C@@H](CCC(=O)O)C(=O)N[C@@H](CCC(=O)O)C(=O)N[C@@H](CCC(=O)O)C(=O)N[C@@H](CCC(=O)O)C(=O)O [Example 91] (H-[12Ado]WQDPHSWNSSFYRLRFELRYRAERSKEEEEE-OH) | 60
KWNSSFYRLRFELRYRAERSKD-NH2 [Example 38] | 56
CC(C)C[C@H](NC(=O)[C@H](CCC(=O)O)NC(=O)[C@H](Cc1ccccc1)NC(=O)[C@H](CCCNC(=N)N)NC(=O)[C@H](CC(C)C)NC(=O)[C@H](CCCNC(=N)N)NC(=O)[C@H](Cc1ccc(O)cc1)NC(=O)[C@H](Cc1ccccc1)NC(=O)[C@H](CO)NC(=O)[C@H](CO)NC(=O)[C@H](CC(N)=O)NC(=O)[C@H](Cc1c[nH]c2ccccc12)NC(=O)[C@H](CO)NC(=O)[C@H](Cc1c[nH]cn1)NC(=O)CCCCCCCCCCCCCCCCCN)C(=O)N[C@@H](CCCNC(=N)N)C(=O)N[C@@H](Cc1ccc(O)cc1)C(=O)N[C@@H](CCCNC(=N)N)C(=O)N[C@@H](C)C(=O)N[C@@H](CCC(=O)O)C(=O)N[C@@H](CCCNC(=N)N)C(=O)N[C@@H](CO)C(=O)N[C@@H](CCCCN)C(=O)NCC(=O)O [Example 60] (X1-HSWNSSFYRLRFELRYRAERSKG-OH) | 58
KKNPRWLSVTWQDPHS [Example 50] | 25
QDPHSWNSSFYRLRFELRYRAERSKK [Example 81] | 76
C[C@H](NC(=O)[C@@H]1CCCN1C(=O)[C@H](CO)NC(=O)[C@H](CC(N)=O)NC(=O)[C@H](CCC(N)=O)NC(=O)[C@H](Cc1ccccc1)NC(=O)[C@H](CCCCN)NC(=O)[C@H](CCCNC(=N)N)NC(=O)CCCCCCCCCCCN)C(=O)N[C@@H](CCC(=O)O)C(=O)N[C@@H](CC(=O)O)C(=O)N[C@@H](Cc1ccccc1)C(=O)N[C@@H](CCC(N)=O)C(=O)N[C@@H](CCC(=O)O)C(=O)N1CCC[C@H]1C(=O)N[C@@H](CS)C(=O)N[C@@H](CCC(N)=O)C(=O)N[C@@H](Cc1ccc(O)cc1)C(=O)N[C@@H](CO)C(=O)N[C@@H](CCC(N)=O)C(=O)N[C@@H](CCC(=O)O)C(=O)N[C@@H](CO)C(=O)N[C@@H](CCC(=O)O)C(=O)N[C@@H](CCC(=O)O)C(=O)N[C@@H](CCC(=O)O)C(=O)N[C@@H](CCC(=O)O)C(=O)N[C@@H](CCC(=O)O)C(=O)O [Example 19] (H-[12Ado]RKFQNSPAEDFQEPCQYSQESEEEEE-OH) | 62
KHSWNSSFYRLRFELRYRAERSKD-NH2 [Example 62] | 50
DDDDDDPHSWNSSFYRLRFELRYRAERSKAAG-NH2 [Example 80] | 59
NPRWLSVTWQDPHS [Example 53] | 22
KKQALTTNKDDDNILFRDSA [Example 26] | 42
WNSSFYRLRFELRYRAERSK [Example 37] | 48
KGTVHLLVDVPPEEPQLSCFRKD-NH2 [Example 14] | 32
CC[C@H](C)[C@H](NC(=O)[C@H](CC(N)=O)NC(=O)[C@H](CC(=O)O)NC(=O)[C@H](CC(=O)O)NC(=O)[C@H](CC(=O)O)NC(=O)[C@H](CCCCN)NC(=O)[C@H](CC(N)=O)NC(=O)[C@@H](NC(=O)[C@@H](NC(=O)[C@H](CC(C)C)NC(=O)[C@H](C)NC(=O)[C@H](CCC(N)=O)NC(=O)CCCCCCCCCCCCCCCCCN)[C@@H](C)O)[C@@H](C)O)C(=O)N[C@@H](CC(C)C)C(=O)N[C@@H](Cc1ccccc1)C(=O)N[C@@H](CCCNC(=N)N)C(=O)N[C@@H](CC(=O)O)C(=O)N[C@@H](CO)C(=O)N[C@@H](C)C(=O)NCC(=O)O [Example 28] (X1-QALTTNKDDDNILFRDSAG-OH) | 47
KKQDPHSWNSSFYRLRFELRYRAERSK [Example 82] | 70
KNPRWLSVTWQDPHSD-NH2 [Example 54] | 28
H-Thr-Ser-Leu-Pro-Gly-Ser-Val-Thr-Leu-Thr-Cys-Pro-Gly-Val-Glu-Pro-Glu-Asp- Lys-OH (H-TSLPGSVTLTCPGVEPEDK-OH) [Example 1] | 38
CC(C)C[C@H](NC(=O)[C@H](CCC(=O)O)NC(=O)[C@H](Cc1ccccc1)NC(=O)[C@H](CCCNC(=N)N)NC(=O)[C@H](CC(C)C)NC(=O)[C@H](CCCNC(=N)N)NC(=O)[C@H](Cc1ccc(O)cc1)NC(=O)[C@H](Cc1ccccc1)NC(=O)[C@H](CO)NC(=O)[C@H](CO)NC(=O)[C@H](CC(N)=O)NC(=O)[C@H](Cc1c[nH]c2ccccc12)NC(=O)[C@H](CO)NC(=O)[C@H](Cc1c[nH]cn1)NC(=O)CCCCCCCCCCCN)C(=O)N[C@@H](CCCNC(=N)N)C(=O)N[C@@H](Cc1ccc(O)cc1)C(=O)N[C@@H](CCCNC(=N)N)C(=O)N[C@@H](C)C(=O)N[C@@H](CCC(=O)O)C(=O)N[C@@H](CCCNC(=N)N)C(=O)N[C@@H](CO)C(=O)N[C@@H](CCCCN)C(=O)N[C@@H](CCC(=O)O)C(=O)N[C@@H](CCC(=O)O)C(=O)N[C@@H](CCC(=O)O)C(=O)N[C@@H](CCC(=O)O)C(=O)N[C@@H](CCC(=O)O)C(=O)O [Example 59] (H-[12Ado]HSWNSSFYRLRFELRYRAERSKEEEEE-OH) | 60
CC(C)C[C@H](NC(=O)[C@@H](NC(=O)[C@@H](NC(=O)[C@H](CO)NC(=O)[C@H](CC(=O)O)NC(=O)CNC(=O)[C@@H]1CCCN1C(=O)[C@H](CC(C)C)NC(=O)[C@H](CO)NC(=O)[C@@H](NC(=O)CCCCCCCCCCCN)[C@@H](C)O)C(C)C)[C@@H](C)O)C(=O)N[C@H](C(=O)N[C@@H](CS)C(=O)N1CCC[C@H]1C(=O)NCC(=O)N[C@H](C(=O)N[C@@H](CCC(=O)O)C(=O)N1CCC[C@H]1C(=O)N[C@@H](CCC(=O)O)C(=O)N[C@@H](CC(=O)O)C(=O)N[C@@H](CCC(=O)O)C(=O)N[C@@H](CCC(=O)O)C(=O)N[C@@H](CCC(=O)O)C(=O)N[C@@H](CCC(=O)O)C(=O)N[C@@H](CCC(=O)O)C(=O)O)C(C)C)[C@@H](C)O [Example 3] (H-[12Ado]TSLPGDSVTLTCPGVEPEDEEEEE-OH) | 40

— patent publication US5171837A, “Peptide capable of binding interleukin 6 and an adsorbent comprising the peptide immobilized on a carrier” (Kuraray Co., Ltd., priority 1989, dated 1992)
